*1 amine or outer side, *2 acyl side, *3 side chain or, on linkers, in order; H or OH if unused. Where a SMILES comes first, the peptide text is derived from it. [ ]: non-standard residue; d: D form. Phe(4-NH(5-NH2triazol-3-yl)) = Nc1nc(Nc2ccc(C[C@H](N)C(=O)O)cc2)n[nH]1; X1 = Nc1nc(Nc2ccc(C[C@@H](N[*:1])C(=O)[*:2])cc2)n[nH]1; dPhe(4-Cl) = N[C@H](Cc1ccc(Cl)cc1)C(=O)O; d2Nal = N[C@H](Cc1ccc2ccccc2c1)C(=O)O; Lys(iPr) = CC(C)NCCCC[C@H](N)C(=O)O; d3Pal = N[C@H](Cc1cccnc1)C(=O)O
Columns and labels:
[1] = biological target: T1, Gonadotropin-releasing hormone receptor (Homo sapiens, UniProt P30968); test: (§1) In vitro inhibition of human gonadotropin-releasing hormone expressed in HEK293 cells; format: cell-based
T1 sequence (P30968 whole entry): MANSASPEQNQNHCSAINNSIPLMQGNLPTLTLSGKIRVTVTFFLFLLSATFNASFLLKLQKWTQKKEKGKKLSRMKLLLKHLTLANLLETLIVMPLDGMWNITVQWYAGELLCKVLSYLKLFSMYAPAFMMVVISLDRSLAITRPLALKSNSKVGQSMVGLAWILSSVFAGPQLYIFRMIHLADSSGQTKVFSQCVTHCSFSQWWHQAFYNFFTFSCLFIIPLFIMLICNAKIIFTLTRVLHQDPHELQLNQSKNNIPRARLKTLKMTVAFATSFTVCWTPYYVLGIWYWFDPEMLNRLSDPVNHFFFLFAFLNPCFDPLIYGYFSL

[2] = biological target: T1, Gonadotropin-releasing hormone receptor; test: as §1; format: cell-based; remark: listed apart in the source

Row | SMILES | IC50 [1] [nM] | IC50 [2] [nM]
1 | CC(=O)N[C@H](Cc1ccc2ccccc2c1)C(=O)N[C@H](Cc1ccc(Cl)cc1)C(=O)N[C@H](Cc1cccnc1)C(=O)N[C@@H](CO)C(=O)N[C@@H](Cc1ccc(Nc2n[nH]c(N)n2)cc1)C(=O)N[C@H](Cc1ccc(Nc2n[nH]c(N)n2)cc1)C(=O)N[C@@H](CC(C)C)C(=O)N[C@@H](CCCCNC(C)C)C(=O)N1CCC[C@H]1C(=O)N[C@H](C)C(N)=O (Ac-[d2Nal][dPhe(4-Cl)][d3Pal]S[Phe(4-NH(5-NH2triazol-3-yl))][X1]L[Lys(iPr)]P[dA]-NH2) |  | 1.26
2 | CC(=O)N[C@H](Cc1ccc2ccccc2c1)C(=O)N[C@H](Cc1ccc(Cl)cc1)C(=O)N[C@H](Cc1cccnc1)C(=O)N[C@@H](CO)C(=O)N[C@@H](Cc1ccc(NC(=O)C2CCNC(=O)N2)cc1)C(=O)N[C@H](Cc1ccc(NC(N)=O)cc1)C(=O)N[C@@H](CC(C)C)C(=O)N[C@@H](CCCCNC(C)C)C(=O)N1CCC[C@H]1C(=O)N[C@H](C)C(N)=O (some centres undefined) | 1.78 | 2
3 | CC(=O)N[C@H](Cc1ccc2ccccc2c1)C(=O)N[C@H](Cc1ccc(Cl)cc1)C(=O)N[C@H](Cc1cccnc1)C(=O)N[C@@H](CO)C(=O)N[C@@H](Cc1ccc(NC(=O)[C@@H]2CCC(=O)N2)cc1)C(=O)N[C@H](Cc1ccc(NC(N)=O)cc1)C(=O)N[C@@H](CC(C)C)C(=O)N[C@@H](CCCCNC(C)C)C(=O)N1CCC[C@H]1C(=O)N[C@H](C)C(=O)O | 1.85 | 2
4 | CC(=O)N[C@H](Cc1ccc2ccccc2c1)C(=O)N[C@H](Cc1ccc(Cl)cc1)C(=O)N[C@H](Cc1cccnc1)C(=O)N[C@@H](CO)C(=O)N[C@@H](Cc1ccc(NCC(=O)n2cc(C)c(=O)[nH]c2=O)cc1)C(=O)N[C@H](Cc1ccc(NC(N)=O)cc1)C(=O)N[C@@H](CC(C)C)C(=O)N[C@@H](CCCCNC(C)C)C(=O)N1CCC[C@H]1C(=O)N[C@H](C)C(N)=O | 2.46 | 2.51

Continued, values first:

Row | IC50 [1] [nM] | IC50 [2] [nM] | SMILES
5 | 6.86 | 6.31 | CC(=O)N[C@H](Cc1ccc2ccccc2c1)C(=O)N[C@H](Cc1ccc(Cl)cc1)C(=O)N[C@H](Cc1cccnc1)C(=O)N[C@@H](CO)C(=O)N[C@@H](Cc1ccc(NC(=O)NC(=O)[C@H](N)CCC(N)=O)cc1)C(=O)N[C@H](Cc1ccc(NC(N)=O)cc1)C(=O)N[C@@H](CC(C)C)C(=O)N[C@@H](CCCCNC(C)C)C(=O)N1CCC[C@H]1C(=O)N[C@H](C)C(=O)O
6 | 6.37 | 6.31 | CC(=O)N[C@H](Cc1ccc2ccccc2c1)C(=O)N[C@H](Cc1ccc(Cl)cc1)C(=O)N[C@H](Cc1cccnc1)C(=O)N[C@@H](CO)C(=O)N[C@@H](Cc1ccc(NC(=O)C(N)CN)cc1)C(=O)N[C@H](Cc1ccc(NC(N)=O)cc1)C(=O)N[C@@H](CC(C)C)C(=O)N[C@@H](CCCCNC(C)C)C(=O)N1CCC[C@H]1C(=O)N[C@H](C)C(=O)O (some centres undefined)
7 | 2.82 | 3.16 | CC(C)C[C@H](NC(=O)[C@@H](Cc1ccc(NC(N)=O)cc1)NC(=O)[C@H](Cc1ccc(NC(=O)C(N)CN)cc1)NC(=O)[C@H](CO)NC(=O)[C@@H](Cc1cccnc1)NC(=O)[C@@H](Cc1ccc(Cl)cc1)NC(=O)[C@H](N)Cc1ccc2ccccc2c1)C(=O)N[C@@H](CCCCNC(C)C)C(=O)N1CCC[C@H]1C(=O)N[C@H](C)C(=O)O (some centres undefined)
8 | 2.37 | 2.51 | CC(=O)N[C@H](Cc1ccc2ccccc2c1)C(=O)N[C@H](Cc1ccc(Cl)cc1)C(=O)N[C@H](Cc1cccnc1)C(=O)N[C@@H](CO)C(=O)N[C@@H](Cc1ccc(NC(=O)NC(=O)[C@@H](N)CC(N)=O)cc1)C(=O)N[C@H](Cc1ccc(NC(N)=O)cc1)C(=O)N[C@@H](CC(C)C)C(=O)N[C@@H](CCCCNC(C)C)C(=O)N1CCC[C@H]1C(=O)N[C@H](C)C(=O)O
9 | 3.53 | 3.16 | CC(=O)N[C@H](Cc1ccc2ccccc2c1)C(=O)N[C@H](Cc1ccc(Cl)cc1)C(=O)N[C@H](Cc1cccnc1)C(=O)N[C@@H](CO)C(=O)N[C@@H](Cc1ccc(NC(=O)C(N)CCN)cc1)C(=O)N[C@H](Cc1ccc(NC(N)=O)cc1)C(=O)N[C@@H](CC(C)C)C(=O)N[C@@H](CCCCNC(C)C)C(=O)N1CCC[C@H]1C(=O)N[C@H](C)C(=O)O (some centres undefined)
10 | 2.22 | 2 | CC(=O)N[C@H](Cc1ccc2ccccc2c1)C(=O)N[C@H](Cc1ccc(Cl)cc1)C(=O)N[C@H](Cc1cccnc1)C(=O)N[C@@H](CO)C(=O)N[C@@H](Cc1ccc(NC(=O)NC(=O)[C@H](N)CC(N)=O)cc1)C(=O)N[C@H](Cc1ccc(NC(N)=O)cc1)C(=O)N[C@@H](CC(C)C)C(=O)N[C@@H](CCCCNC(C)C)C(=O)N1CCC[C@H]1C(=O)N[C@H](C)C(=O)O
